Experimental data from patent US20050282755A1, “Compositions having antimicrobial activity and uses thereof” (priority 2004, published 2005).
Converted amounts (≈) assume the structure as drawn. Non-standard residues stand in square brackets, D forms with d. Residues, ends and D or L forms follow the SMILES beside them. *: point of attachment. Lauroyl = CCCCCCCCCCCC(=O)*

Tests used:
Assay type in all cases: cell-based
[1] = system: Staphylococcus aureus ATCC 29213; experiment: MIC, NCCLS M7-A6 broth microdilution, cation-adjusted Mueller Hinton broth (Table 9, no superscript); conditions: ATCC 29213
How it was run: (§1)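 Log-phase bacteria were added to wells containing peptide in cation-adjusted Mueller Hinton broth at a final 5×10^5 to 1×10^6 CFU/milliliter. Plates then sat overnight at 37° C. Wells were scored visually for turbidity against a peptide-free control.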

[2] = system: Staphylococcus epidermidis ATCC 12228; experiment: MIC, NCCLS M7-A6 broth microdilution (Table 9, no superscript); conditions: ATCC 12228
How it was run: as §1

Salmonella dublin (Lane) = experiment: as above
How it was run: as §1

[3] = system: Pseudomonas aeruginosa ATCC 27853; experiment: as above; conditions: ATCC 27853
How it was run: as §1

[4] = system: Escherichia coli ATCC 25922; experiment: as above; conditions: ATCC 25922
How it was run: as §1

[5] = system: Candida albicans ATCC 18804; experiment: MIC in yeasts, NCCLS M27-A2 broth microdilution, RPMI 1640 (Table 9, letter e); conditions: ATCC 18804
How it was run: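 Plates incubated 24 to 48 hours at 37° C, with yeast seeded at 0.5×10^3–2.5×10^3 CFU/milliliter final in RPMI 1640 (glutamine, phenol red indicator). MIC was read as the lowest peptide concentration showing no visible growth.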

[6] = system: Propionibacterium acnes ATCC 6919
Procedure: A second method that was used to determine the MIC in P. acnes for selected antimicrobial agents was a non-standard broth microdilution method that used an assay buffer composed of reinforced Clostridial broth. Briefly, a log-phase bacterial culture of P. acnes was used to inoculate wells of a 96-well plate so that the final inoculum for each well contained 5×10^5 to 1×10^6 CFU/milliliter. […] Plates were incubated for 48-72 hours at 37° C. in a GasPak anaerobic chamber. The lowest concentration of peptide that contained no visible growth as evidenced by a lack of turbidity when compared to the control (no peptide) was determined as the MIC. MIC values that utilized this method of MIC determination are indicated in Table 9 with a subscript letter “d.”

Row | SMILES | MIC S. aureus [1] | MIC S. epidermidis [2] | MIC S. dublin (Salmonella dublin (Lane)) | MIC P. aeruginosa [3] | MIC E. coli [4] | MIC C. albicans [5] | MIC P. acnes [6]
1 | CSCC[C@@H](NC(=O)[C@@H](Cc1ccccc1)NC(=O)[C@@H](CC(N)=O)NC(=O)[C@@H](CCCNC(=N)N)NC(=O)[C@@H](C)NC(=O)[C@@H](Cc1c[nH]c2ccccc12)NC(=O)[C@@H](CC(=O)O)NC(=O)[C@@H](CCCNC(=N)N)NC(=O)[C@@H](Cc1c[nH]c2ccccc12)NC(=O)[C@@H](CCCNC(=N)N)NC(=O)[C@@H](CO)NC(=O)[C@@H](CCCNC(=N)N)NC(=O)CNC(=O)[C@H](NC(=O)[C@@H](CCCNC(=N)N)NC(=O)[C@@H](C)NC(=O)[C@H](NC(=O)[C@@H](CCCNC(=N)N)NC(=O)[C@H](NC(C)=O)[C@H](C)O)C(C)C)[C@H](C)O)C(=O)N[C@H](CCCNC(=N)N)C(N)=O [Peptide 56, Ac-trvartgrsrwrdwarnfmr-NH2] (Ac-[dT][dR][dV][dA][dR][dT]G[dR][dS][dR][dW][dR][dD][dW][dA][dR][dN][dF][dM][dR]-NH2) | >64 µg/mL | 2 µg/mL (≈ 0.763 µM) | 8 µg/mL (≈ 3.05 µM) | >64 µg/mL | 4 µg/mL (≈ 1.53 µM) | 64e ug/mL | 6 µg·days/mL
2 | CCCCCCCCCCCC(=O)N[C@H](C(=O)N[C@@H](CCCNC(=N)N)C(=O)N[C@H](C(=O)N[C@@H](CO)C(=O)N[C@@H](CCCNC(=N)N)C(=O)N[C@H](C(=O)NCC(=O)N[C@@H](CCCNC(=N)N)C(=O)N[C@@H](CO)C(=O)N[C@@H](CCCNC(=N)N)C(=O)N[C@@H](Cc1c[nH]c2ccccc12)C(=O)N[C@@H](CCCNC(=N)N)C(=O)N[C@@H](CC(=O)O)C(=O)N[C@@H](Cc1c[nH]c2ccccc12)C(=O)N[C@@H](CO)C(=O)N[C@@H](CCCNC(=N)N)C(=O)N[C@@H](CC(N)=O)C(=O)N[C@@H](Cc1ccccc1)C(=O)N[C@@H](CCSC)C(=O)N[C@@H](CCCNC(=N)N)C(N)=O)[C@@H](C)O)C(C)C)[C@@H](C)O [Peptide 63] (Lauroyl-TRVSRTGRSRWRDWSRNFMR-NH2) | 8 µg/mL (≈ 2.87 µM) | 2 µg/mL (≈ 0.716 µM) | 16 µg/mL (≈ 5.73 µM) | 64 µg/mL (≈ 22.9 µM) | 32 µg/mL (≈ 11.5 µM) | 16e ug/mL | 12.5 µg·days/mL
